Here are results for 5 compounds from patent publication US20150044346A1, “USE OF OXAZOLINES AS AROMA/FLAVOUR PRECURSORS” (NESTEC S.A., priority 2012, published 2015).

Data set [1] in a line: SPME-GCxGC-TOFMS of 3-methylbutanal in coffee mix spiked with oxazoline. It is filed as physicochemical. Here is the method: (§1) Coffee mix powder (16 g) was weighted into a Pyrex bottle. The product was spiked with 2-(2-methylpropyl)-5-methyl-3-oxazoline (10 mg) and the sample was then reconstituted in 130 ml of hot (80° C.) water. Sample without addition of oxazoline was prepared analogously and used as reference. The impact of the addition of the oxazoline on the intensity of malty aroma (characteristic aroma of 3-methylbutanal) was evaluated by a sensory panel as described in example 9. […] To further substantiate the sensory results, the sample was analyzed by SPME-GCxGC-TOFMS.
The results (Table 7) indicate that the conversion of oxazoline to Strecker aldehyde is very high and reaches 77% in the analysed coffee mix sample (incubation 60° C./15 min).

A short description of data set [2]: Sensory panel, malty aroma of cocoa-malt-based beverage spiked with oxazoline. To be noted: cocoa-malt-based beverage 7.5 g + 10 mg oxazoline. Here is the method:
(§2) Cocoa-malt-based beverage (7.5 g) was weighted into a Pyrex bottle. The product was spiked with 2-(2-methylpropyl)-5-methyl-3-oxazoline (10 mg) and the sample was then reconstituted in 100 mL of cold (10° C.) or warm (60° C.) semi-skimmed milk. Samples without addition of oxazoline were prepared analogously and used as references. The impact of the addition of the oxazoline on the intensity of malty aroma (characteristic aroma of 3-methylbutanal) was evaluated by a sensory panel. Comparative profiling procedure was conducted using an 11-point scale ranging from −5 to +5. Assessors were asked to score the sample containing oxazoline against the reference. Reference product containing no added oxazoline was arbitrary positioned on the zero of the scale.

The nature of data set [3]: Impact of pH value on release of Strecker aldehyde from 3-oxazoline precursor in buffer solution at 37° C. It is filed as physicochemical. Here is the method:
(§3) 2-(2-Methylpropyl)-5-methyl-3-oxazoline (dissolved in pentane/diethyl ether; 2 mL) was added to ethanol (0.5 mL). The pentane/diethyl ether was carefully evaporated, and finally made up to 5 mL with ethanol. […] A control experiment was performed with 2-(2-methylpropyl)-5-methyl-3-oxazoline and the respective standard without adding the respective buffer solution. For headspace measurements, the samples were directly subjected to HS-GC-MS. For liquid measurements, the samples were cooled in an ice bath and extracted with diethyl ether (3×15 mL; liquid-liquid extraction). The organic phases were combined, dried over anhydrous sodium sulphate, and the solvent was distilled off (20° C., 500 mbar) to about 4 mL. An aliquot (2 μL) was used for the stable isotope dilution assays ((GC-) GC-MS).
as §3, with “2-Methylphenyl-5-methyl-3-oxazoline” for “2-(2-Methylpropyl)-5-methyl-3-oxazoline”, “2-methylphenyl-5-methyl-3-oxazoline” for “2-(2-methylpropyl)-5-methyl-3-oxazoline”

A short description of data set [4]: Sensory panel, malty aroma of cereal based pap spiked with oxazoline. To be noted: cereal powder 12.5 g + 10 mg oxazoline, scale −5 to +5. The procedure: as §2
Cereal powder (12.5 g) was weighted into a plastic dish. The product was spiked with 2-(2-methylpropyl)-5-methyl-3-oxazoline (10 mg) and the sample was then reconstituted in 100 ml of warm (60° C.) water or semi-skimmed milk. Sample without addition of oxazoline was prepared analogously and used as reference. The impact of the addition of the oxazoline on the intensity of malty aroma (characteristic aroma of 3-methylbutanal) was evaluated by a sensory panel as described in example 9.

Data set [5] can be described thus: Sensory panel, malty aroma of coffee mix beverage spiked with oxazoline. To be noted: coffee mix powder 16 g + 10 mg oxazoline, 130 ml hot (80° C.) water; scale −5 to +5, reference at zero. The procedure:
as §2, §1

The nature of data set [6]: Release of Strecker aldehyde from 3-oxazoline precursor stirred in water at 37° C. (stable isotope dilution, HS-GC-MS / GC-MS). It is filed as physicochemical. The note with it: 5 min after addition of water at 37° C.
Data set [7] can be described thus: Headspace GC-MS release of Strecker aldehydes from spiked chocolate on addition of saliva. It is filed as physicochemical. To be noted: headspace injection; for Concentration in “release sample” (after addition of saliva): spiked chocolate 2 g + saliva 2 mL, 5 min at 37° C.; for Concentration in blank sample (prior addition of saliva): spiked chocolate 2 g melted at 37° C. The procedure:
To further confirm the PTR-MS data, all experiments are repeated using a headspace GC-MS system. Commercial chocolate (50% of cocoa content) was frozen in liquid nitrogen and ground to a powder using a mixer. An aliquote (25 g) was melted at 35° C. using a water bath and [^2H6]-methylpropanal, [^2H2]-3-methylbutanal as well as [^13C2]-phenylacetaldehyde were added. After stirring for 5 min, the chocolate was cooled to room temperature and used for all further headspace experiments (“spiked chocolate”). The newly spiked chocolate (2 g) was weighed into a headspace vial (10 mL; sealed with a gastight septum) containing a stirring bar. The chocolate was melted at 37° C. for 5 min under stirring. Then, the first injection (1 mL) was done at 37° C. used as blank sample. Afterwards, the sample was cooled to approx. 16° C. After 30 min, saliva (2 mL) was added through the septum via a syringe, and the sample was again warmed to 37° C. under stirring. After a further 5 min, the second injection (1 mL) was done again at 37° C. (“release sample”). All experiments were done in triplicates. 2-Methylbutanal was quantified using [^2H2]-3-methylbutanal.

Data set [8] is described as follows: PTR-MS release of Strecker aldehydes from spiked chocolate on addition of water or saliva. It is filed as physicochemical. To be noted: spiked chocolate 5 g, water (5 mL, pH 4) or saliva (5 mL), 37° C.; FIG. 2, FIG. 3. Here is the method:
Commercial chocolate (50% of cocoa content) was frozen in liquid nitrogen and ground to a powder using a mixer. An aliquote (50 g) was melted at 35° C. using a water bath and [^2H2]-3-methylbutanal as well as [^13C2]-phenylacetaldehyde were added. After stirring for 5 min, the chocolate was cooled to room temperature and used for all further PTR-MS experiments (“spiked chocolate”).
5.0 g of spiked chocolate was weighed into an iodine flask (200 mL; sealed with a gastight septum) containing a stirring bar. The chocolate was melted at 37° C. for 5 min under stirring. Afterwards, the flask was connected to a PTR-MS instrument via a peek capillary (experiments were done at 37° C.). After defined time (details are given in the respective figures via number of cycles), water (5 mL, pH 4) or saliva (5 mL), respectively, was singly added through the septum via a syringe.
As blank, methylpropanal (2.5 μg), 3-methylbutanal (6.25 μg), phenylacetaldehyde (25 μg), [^2H2]-3-methylbutanal (4.3 μg), and [^13C2]-phenylacetaldehyde (20 μg) were added to sunflower oil (10 g) in an iodine flask (200 mL). Following parameters are used for PTR-MS measurement: inlet temperature 120° C., chamber temperature 80° C., inlet flow 70 mL/min. The mass traces and the dwell time used to monitor Strecker aldehydes are shown below: […]

In the case of `CC(C)CC1N=CC(C)O1` (stereo not drawn) [2-(2-methylpropyl)-5-methyl-3-oxazoline], the “Theoretical release from spike, 3-methylbutanal (ug/vial)” value in data set [1] is listed as 244 ug/vial. For the same compound, the “Yield of conversion of oxazoline to Strecker aldehyde” value in data set [1] (incubation 60° C./15 min) was found to be 77%. The “3-methylbutanal (ug/vial), sample spiked with oxazoline” value in data set [1] (incubation 60° C./15 min, non-spiked reference 28) is reported as 215 ug/vial. Also, the “malty note score against reference” value in data set [2] (cold (10° C.) semi-skimmed milk, 11-point scale −5 to +5, reference at zero) worked out at 3.6; in data set [2] (warm (60° C.) semi-skimmed milk (hot milk), scale −5 to +5, reference at zero), 3.3; in data set [4] (100 ml warm (60° C.) semi-skimmed milk), 1.2; in data set [4] (100 ml warm (60° C.) water), 1.7; in data set [5], 3.5. Further, the “3-methylbutanal (mol %) generated from precursor” value in data set [3] (pH 5, Control without addition of buffer solution) was determined as 0.5 mol %; in data set [3] (pH 5 buffer, 10 min, 37° C.) it was 95.1 mol %; in data set [3] (pH 5 buffer, 60 min, 37° C.), 98.9 mol %; in data set [3] (pH 7, Control without addition of buffer solution), 0.3 mol %; in data set [3] (pH 7 buffer, 10 min, 37° C.) it was 54.8 mol %; in data set [3] (pH 7 buffer, 60 min, 37° C.), 97.9 mol %. Besides, the “3-methylbutanal (mol %) generated from precursor” value in data set [3] (pH 9, Control without addition of buffer solution) came out at 0.3 mol %; in data set [3] (pH 9 buffer, 10 min, 37° C.), 9.0 mol %; in data set [3] (pH 9 buffer, 60 min, 37° C.), 35.7 mol %. In data set [6], the “3-methylbutanal released / precursor converted to Strecker aldehyde” value is “about 75%”.

Take `CC(C)CC=O` [3-methylbutanal]: in data set [7], the “Concentration in “release sample” (after addition of saliva)” value (“Concentration in “release sample”” for short) is listed as 4456 μg/kg of chocolate and the “Concentration in blank sample (prior addition of saliva)” value (“Concentration in blank sample” below) is 502 μg/kg of chocolate. For the same compound, the “release from spiked chocolate after addition of water or saliva (PTR-MS)” value (shortened to “release from spiked chocolate”) in data set [8] is “clearly increased”.

With `CC(C)C=O` [methylpropanal], in data set [7], the “Concentration in “release sample”” value is listed as 1103 μg/kg of chocolate and the “Concentration in blank sample” value is on record as 25.4 μg/kg of chocolate. Also, in data set [8], the “release from spiked chocolate” value was “clearly increased”.

Turning to `CCC(C)C=O` (stereo not drawn) [2-methylbutanal], in data set [7], the “Concentration in “release sample”” value is on record as 3009 μg/kg of chocolate and the “Concentration in blank sample” value is 354 μg/kg of chocolate. Moreover, the “release from spiked chocolate” value in data set [8] is given as “clearly increased”.

Consider `O=CCc1ccccc1` [phenylacetaldehyde], for which, in data set [7], the “Concentration in “release sample”” value is “< LoD (due to headspace” and the “Concentration in blank sample” value was “< LoD (due to headspace”. Besides, in data set [8], the “release from spiked chocolate” value is “clearly increased”.
